# Results taken from ChEMBL document CHEMBL5653615 (J Biol Chem, 2013).
# Assays:
# [1] = molecular target: T1, Serine/threonine-protein kinase BRSK2 (Homo sapiens) (UniProt Q8IWQ3); assay: Inhibition of human BRSK2 at 18.6 nM by HotSpot assay relative to control
# T1 sequence (whole entry): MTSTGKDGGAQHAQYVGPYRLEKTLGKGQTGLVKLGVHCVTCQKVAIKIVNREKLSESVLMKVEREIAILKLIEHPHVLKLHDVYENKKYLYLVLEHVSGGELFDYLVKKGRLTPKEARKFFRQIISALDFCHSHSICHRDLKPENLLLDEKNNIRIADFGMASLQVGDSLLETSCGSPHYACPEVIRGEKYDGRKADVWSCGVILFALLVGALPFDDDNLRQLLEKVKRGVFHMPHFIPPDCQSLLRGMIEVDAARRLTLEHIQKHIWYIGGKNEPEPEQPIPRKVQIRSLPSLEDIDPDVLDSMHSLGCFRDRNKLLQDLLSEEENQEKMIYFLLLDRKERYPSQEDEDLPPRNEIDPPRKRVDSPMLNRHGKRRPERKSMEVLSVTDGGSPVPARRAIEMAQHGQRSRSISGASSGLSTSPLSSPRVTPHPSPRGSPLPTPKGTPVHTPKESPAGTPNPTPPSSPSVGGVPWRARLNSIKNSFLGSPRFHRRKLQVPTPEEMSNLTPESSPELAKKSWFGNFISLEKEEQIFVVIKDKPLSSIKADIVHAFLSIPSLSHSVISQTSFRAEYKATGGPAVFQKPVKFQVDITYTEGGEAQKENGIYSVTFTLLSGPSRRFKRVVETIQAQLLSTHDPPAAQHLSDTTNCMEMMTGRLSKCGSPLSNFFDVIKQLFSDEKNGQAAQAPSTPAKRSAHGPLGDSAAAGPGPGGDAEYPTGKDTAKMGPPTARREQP
# [2] = molecular target: Calcium/calmodulin-dependent protein kinase type II subunit alpha (Homo sapiens) (UniProt Q9UQM7); assay: Inhibition of human CAMK2a at 18.6 nM by HotSpot assay relative to control
# [3] = molecular target: T2, Serine/threonine-protein kinase STK11 (Homo sapiens) (UniProt Q15831); assay: Inhibition of human LKB1 at 18.6 nM by HotSpot assay relative to control
# T2 sequence (whole entry): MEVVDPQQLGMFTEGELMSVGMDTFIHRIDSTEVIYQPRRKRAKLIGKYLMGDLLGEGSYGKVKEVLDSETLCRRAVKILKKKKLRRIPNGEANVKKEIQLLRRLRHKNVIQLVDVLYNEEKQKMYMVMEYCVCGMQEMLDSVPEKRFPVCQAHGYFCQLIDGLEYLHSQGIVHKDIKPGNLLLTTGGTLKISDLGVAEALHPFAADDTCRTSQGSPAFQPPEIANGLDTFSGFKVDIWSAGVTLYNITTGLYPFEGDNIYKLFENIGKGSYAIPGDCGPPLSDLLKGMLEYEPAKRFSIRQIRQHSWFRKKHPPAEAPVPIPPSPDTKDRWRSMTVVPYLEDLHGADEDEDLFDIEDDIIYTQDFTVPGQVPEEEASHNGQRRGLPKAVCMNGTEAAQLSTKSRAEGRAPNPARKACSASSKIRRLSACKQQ
# [4] = molecular target: T3, Serine/threonine-protein kinase Nek2 (Homo sapiens) (UniProt P51955); assay: Inhibition of human NEK2 at 18.6 nM by HotSpot assay relative to control
# T3 sequence (whole entry): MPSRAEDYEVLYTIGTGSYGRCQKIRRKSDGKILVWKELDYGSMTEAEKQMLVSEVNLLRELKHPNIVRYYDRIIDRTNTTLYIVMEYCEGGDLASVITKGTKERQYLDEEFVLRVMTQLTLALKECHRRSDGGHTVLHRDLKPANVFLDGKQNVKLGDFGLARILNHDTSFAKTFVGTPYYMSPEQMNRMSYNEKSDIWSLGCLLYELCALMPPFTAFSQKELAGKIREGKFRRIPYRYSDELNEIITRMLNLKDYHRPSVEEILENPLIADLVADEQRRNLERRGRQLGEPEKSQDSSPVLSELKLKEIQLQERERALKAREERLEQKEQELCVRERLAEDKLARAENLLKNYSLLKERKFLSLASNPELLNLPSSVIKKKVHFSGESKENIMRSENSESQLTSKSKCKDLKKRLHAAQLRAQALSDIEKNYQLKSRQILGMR
# [5] = molecular target: Platelet-derived growth factor receptor beta (Homo sapiens) (UniProt P09619); assay: Inhibition of human PDGFRb at 18.6 nM by HotSpot assay relative to control
# [6] = molecular target: T4, Tyrosine-protein kinase receptor TYRO3 (Homo sapiens) (UniProt Q06418); assay: Inhibition of human SKY at 18.6 nM by HotSpot assay relative to control
# T4 sequence (whole entry): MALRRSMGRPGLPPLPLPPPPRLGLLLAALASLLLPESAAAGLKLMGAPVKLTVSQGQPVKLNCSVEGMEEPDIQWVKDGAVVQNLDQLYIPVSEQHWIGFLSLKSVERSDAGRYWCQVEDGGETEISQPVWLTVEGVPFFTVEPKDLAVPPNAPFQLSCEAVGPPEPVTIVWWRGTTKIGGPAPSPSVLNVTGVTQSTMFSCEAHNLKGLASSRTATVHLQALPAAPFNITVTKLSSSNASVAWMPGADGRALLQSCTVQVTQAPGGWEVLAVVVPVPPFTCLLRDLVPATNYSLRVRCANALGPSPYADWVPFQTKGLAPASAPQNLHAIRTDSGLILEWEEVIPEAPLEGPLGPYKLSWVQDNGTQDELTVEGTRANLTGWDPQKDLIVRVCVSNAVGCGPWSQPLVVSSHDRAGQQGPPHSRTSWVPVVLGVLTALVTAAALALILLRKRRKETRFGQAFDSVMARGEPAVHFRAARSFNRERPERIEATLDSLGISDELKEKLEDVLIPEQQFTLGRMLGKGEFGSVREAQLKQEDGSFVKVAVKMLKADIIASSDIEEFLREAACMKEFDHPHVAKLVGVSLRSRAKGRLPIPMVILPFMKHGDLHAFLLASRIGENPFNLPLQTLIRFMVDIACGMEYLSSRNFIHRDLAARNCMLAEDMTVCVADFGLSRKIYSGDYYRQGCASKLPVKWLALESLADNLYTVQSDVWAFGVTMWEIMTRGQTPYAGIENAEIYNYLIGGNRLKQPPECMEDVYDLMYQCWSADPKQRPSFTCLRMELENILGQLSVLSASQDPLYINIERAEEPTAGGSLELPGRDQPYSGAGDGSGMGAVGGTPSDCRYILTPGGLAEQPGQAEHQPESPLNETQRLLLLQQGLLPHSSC
# [7] = molecular target: Epidermal growth factor receptor (Homo sapiens) (UniProt P00533); assay: Inhibition of human EGFR at 1.82 nM by HotSpot assay relative to control
# [8] = molecular target: Serine/threonine-protein kinase WNK3 (Homo sapiens) (UniProt Q9BYP7); assay: Inhibition of human WNK3 at 1.82 nM by HotSpot assay relative to control
# Serine/threonine-protein kinase WNK3 (Homo sapiens), sequence (Q9BYP7 whole entry): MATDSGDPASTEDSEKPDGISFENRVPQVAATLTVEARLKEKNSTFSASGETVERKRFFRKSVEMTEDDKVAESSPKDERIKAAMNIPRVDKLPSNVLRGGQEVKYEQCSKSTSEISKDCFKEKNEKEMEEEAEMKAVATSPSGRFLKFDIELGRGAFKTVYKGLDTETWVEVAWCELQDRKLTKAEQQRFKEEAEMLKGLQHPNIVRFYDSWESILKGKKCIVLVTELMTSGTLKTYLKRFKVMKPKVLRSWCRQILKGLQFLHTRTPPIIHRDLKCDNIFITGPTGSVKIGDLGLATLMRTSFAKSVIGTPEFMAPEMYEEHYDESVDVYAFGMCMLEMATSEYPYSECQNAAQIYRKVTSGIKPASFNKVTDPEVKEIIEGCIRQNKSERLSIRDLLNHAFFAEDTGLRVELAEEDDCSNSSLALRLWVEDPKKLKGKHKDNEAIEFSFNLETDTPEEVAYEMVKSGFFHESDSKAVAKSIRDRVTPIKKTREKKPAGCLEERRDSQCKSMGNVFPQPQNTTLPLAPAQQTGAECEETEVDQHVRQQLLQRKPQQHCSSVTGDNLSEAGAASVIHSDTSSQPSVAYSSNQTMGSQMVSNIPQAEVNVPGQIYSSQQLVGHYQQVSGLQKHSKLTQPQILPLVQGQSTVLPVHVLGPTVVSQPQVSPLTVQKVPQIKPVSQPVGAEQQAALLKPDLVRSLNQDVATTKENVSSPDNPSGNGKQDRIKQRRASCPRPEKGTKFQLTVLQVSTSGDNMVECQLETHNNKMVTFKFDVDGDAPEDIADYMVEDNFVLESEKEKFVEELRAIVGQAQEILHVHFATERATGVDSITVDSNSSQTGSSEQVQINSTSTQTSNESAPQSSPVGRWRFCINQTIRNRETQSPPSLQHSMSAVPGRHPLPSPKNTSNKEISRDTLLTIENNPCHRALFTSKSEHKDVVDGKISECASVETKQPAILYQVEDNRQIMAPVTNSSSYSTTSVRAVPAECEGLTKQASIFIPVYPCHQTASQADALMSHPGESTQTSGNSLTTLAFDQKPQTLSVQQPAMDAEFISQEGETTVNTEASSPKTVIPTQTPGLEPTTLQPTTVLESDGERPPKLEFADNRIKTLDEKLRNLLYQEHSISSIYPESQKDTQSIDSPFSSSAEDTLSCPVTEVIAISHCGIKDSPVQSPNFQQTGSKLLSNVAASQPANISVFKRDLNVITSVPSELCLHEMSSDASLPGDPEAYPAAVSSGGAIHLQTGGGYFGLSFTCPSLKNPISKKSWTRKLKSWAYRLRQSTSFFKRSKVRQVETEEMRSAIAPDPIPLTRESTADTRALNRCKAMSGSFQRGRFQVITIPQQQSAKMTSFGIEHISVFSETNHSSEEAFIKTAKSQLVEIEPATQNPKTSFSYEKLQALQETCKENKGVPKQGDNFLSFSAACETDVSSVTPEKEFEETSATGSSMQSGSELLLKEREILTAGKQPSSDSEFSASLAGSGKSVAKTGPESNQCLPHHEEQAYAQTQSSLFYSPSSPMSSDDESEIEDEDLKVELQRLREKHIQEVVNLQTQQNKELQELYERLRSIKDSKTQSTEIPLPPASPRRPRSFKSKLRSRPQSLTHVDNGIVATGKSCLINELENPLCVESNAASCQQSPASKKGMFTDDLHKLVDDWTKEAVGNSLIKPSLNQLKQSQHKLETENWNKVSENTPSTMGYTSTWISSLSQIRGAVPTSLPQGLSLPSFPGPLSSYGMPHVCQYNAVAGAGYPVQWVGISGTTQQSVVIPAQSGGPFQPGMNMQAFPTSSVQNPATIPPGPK
# Platelet-derived growth factor receptor beta (Homo sapiens), sequence (P09619 whole entry): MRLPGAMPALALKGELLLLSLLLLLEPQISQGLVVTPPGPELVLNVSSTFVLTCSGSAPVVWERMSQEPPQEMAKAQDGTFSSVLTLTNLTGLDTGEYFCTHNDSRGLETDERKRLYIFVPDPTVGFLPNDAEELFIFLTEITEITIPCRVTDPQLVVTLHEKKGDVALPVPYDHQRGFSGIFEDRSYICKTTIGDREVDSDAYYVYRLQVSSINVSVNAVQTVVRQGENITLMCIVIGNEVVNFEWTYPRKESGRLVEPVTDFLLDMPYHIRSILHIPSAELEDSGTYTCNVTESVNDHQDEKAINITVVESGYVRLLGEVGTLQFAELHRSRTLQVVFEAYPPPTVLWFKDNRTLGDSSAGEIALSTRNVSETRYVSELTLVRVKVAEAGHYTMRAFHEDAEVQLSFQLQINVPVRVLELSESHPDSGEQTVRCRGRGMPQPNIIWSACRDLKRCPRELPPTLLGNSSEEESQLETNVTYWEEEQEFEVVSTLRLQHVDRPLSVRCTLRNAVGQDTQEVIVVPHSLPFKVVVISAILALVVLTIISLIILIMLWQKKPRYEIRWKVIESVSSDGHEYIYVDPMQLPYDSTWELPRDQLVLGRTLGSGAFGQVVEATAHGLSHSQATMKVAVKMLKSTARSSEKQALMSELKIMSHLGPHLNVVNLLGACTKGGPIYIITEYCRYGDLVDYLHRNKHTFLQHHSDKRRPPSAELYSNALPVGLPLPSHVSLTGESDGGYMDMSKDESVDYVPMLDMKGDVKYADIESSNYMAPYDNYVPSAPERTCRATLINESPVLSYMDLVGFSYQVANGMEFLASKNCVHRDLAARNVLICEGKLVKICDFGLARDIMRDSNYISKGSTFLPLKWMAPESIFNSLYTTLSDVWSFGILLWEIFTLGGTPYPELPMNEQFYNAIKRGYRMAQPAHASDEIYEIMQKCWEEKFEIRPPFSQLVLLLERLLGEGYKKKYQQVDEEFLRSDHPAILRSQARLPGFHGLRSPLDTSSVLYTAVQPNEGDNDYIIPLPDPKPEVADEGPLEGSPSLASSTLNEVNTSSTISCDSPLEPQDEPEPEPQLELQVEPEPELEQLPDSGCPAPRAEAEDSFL
# Epidermal growth factor receptor (Homo sapiens), sequence (P00533 whole entry): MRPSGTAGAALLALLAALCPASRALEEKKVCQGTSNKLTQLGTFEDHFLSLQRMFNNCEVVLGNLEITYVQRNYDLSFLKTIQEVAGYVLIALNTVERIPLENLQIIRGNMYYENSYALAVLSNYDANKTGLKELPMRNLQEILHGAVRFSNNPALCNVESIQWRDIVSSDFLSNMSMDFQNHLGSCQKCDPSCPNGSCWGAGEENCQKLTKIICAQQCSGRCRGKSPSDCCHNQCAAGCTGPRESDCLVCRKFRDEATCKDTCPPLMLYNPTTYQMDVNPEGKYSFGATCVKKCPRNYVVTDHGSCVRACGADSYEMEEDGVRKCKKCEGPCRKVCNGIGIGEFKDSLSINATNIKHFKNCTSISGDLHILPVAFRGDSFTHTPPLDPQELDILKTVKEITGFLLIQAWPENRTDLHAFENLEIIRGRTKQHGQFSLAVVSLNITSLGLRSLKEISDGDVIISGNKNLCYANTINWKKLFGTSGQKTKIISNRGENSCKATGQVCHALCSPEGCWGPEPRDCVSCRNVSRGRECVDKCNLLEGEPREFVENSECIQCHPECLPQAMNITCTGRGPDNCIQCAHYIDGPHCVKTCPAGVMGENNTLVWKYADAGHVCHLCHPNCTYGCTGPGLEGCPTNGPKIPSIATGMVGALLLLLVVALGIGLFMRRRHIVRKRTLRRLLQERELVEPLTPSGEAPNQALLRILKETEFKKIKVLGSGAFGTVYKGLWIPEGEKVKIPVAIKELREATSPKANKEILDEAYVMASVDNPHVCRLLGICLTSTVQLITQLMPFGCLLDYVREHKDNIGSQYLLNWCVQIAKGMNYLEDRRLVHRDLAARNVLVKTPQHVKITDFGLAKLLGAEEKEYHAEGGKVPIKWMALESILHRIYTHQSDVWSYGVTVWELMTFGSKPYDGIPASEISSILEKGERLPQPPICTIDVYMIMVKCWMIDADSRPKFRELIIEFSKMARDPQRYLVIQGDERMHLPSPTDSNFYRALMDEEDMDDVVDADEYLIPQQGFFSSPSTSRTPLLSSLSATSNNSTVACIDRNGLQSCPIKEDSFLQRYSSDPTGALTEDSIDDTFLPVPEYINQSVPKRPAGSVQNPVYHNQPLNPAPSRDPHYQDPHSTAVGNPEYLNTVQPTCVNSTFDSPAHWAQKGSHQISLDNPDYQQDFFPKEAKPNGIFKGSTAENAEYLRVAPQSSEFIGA
# Calcium/calmodulin-dependent protein kinase type II subunit alpha (Homo sapiens), sequence (Q9UQM7 whole entry): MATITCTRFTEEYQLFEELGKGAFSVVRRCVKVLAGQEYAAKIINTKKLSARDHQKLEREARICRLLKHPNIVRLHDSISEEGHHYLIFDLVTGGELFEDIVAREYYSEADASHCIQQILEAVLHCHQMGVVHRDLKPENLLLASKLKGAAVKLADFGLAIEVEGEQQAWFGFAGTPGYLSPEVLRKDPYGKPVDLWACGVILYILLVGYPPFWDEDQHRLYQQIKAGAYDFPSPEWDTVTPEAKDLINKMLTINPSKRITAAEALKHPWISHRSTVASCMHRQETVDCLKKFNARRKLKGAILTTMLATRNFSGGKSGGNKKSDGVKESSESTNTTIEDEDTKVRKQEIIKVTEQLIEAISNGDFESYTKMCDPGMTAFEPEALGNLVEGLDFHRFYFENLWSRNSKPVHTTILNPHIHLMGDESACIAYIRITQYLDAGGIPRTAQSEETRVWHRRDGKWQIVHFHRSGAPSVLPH
SMILES,inhibition [1] [%],inhibition [2] [%],inhibition [3] [%],inhibition [4] [%],inhibition [5] [%],inhibition [6] [%],inhibition [7] [%],inhibition [8] [%]
C[C@]1(O)C[C@@H](c2nc(-c3ccc4ccc(-c5ccccc5)nc4c3)c3c(N)nccn32)C1,-4.68,-4.3,2.28,4.82,8.57,1.42,–,–
C[C@@]1(C(=O)Nc2ccc(F)nc2)CCCN1c1nc(Nc2cc(C3CC3)n[nH]2)c2cccn2n1,–,–,–,–,–,–,-6.78,3.37
